Results as given in patent US5488051A, “Substituted 5,6-dihydro-5-oxo-1,4-dithiino-(2,3-d)-pyridazine-2,3-dicarbonitriles, compositions containing them and their use as antimicrobials” (The Dow Chemical Company, priority 1994, dated 1996).
≈ marks a conversion by molar mass, not a printed value. Read-outs that look alike come from different tables or passages of the source.

What was measured:
[1] = tested on: Staphylococcus aureus (Sa); assay: MIC for Staphylococcus aureus, nutrient agar; format: cell-based, Staphylococcus aureus ATCC 6538; settings: 30° C., 48 hours, read-out: Minimum Inhibitory Concentration (MIC), Sa
Method: (§1) The minimum inhibitory concentration (MIC) for the compounds listed in Table I is determined for 9 bacteria, using nutrient agar; and 7 yeast and fungi, using malt yeast agar. A one percent solution of the test compound is prepared in a mixture of acetone and water.
(§2) Nutrient agar is prepared at pH 6.8, representing a neutral medium, and at pH 8.2, representing an alkaline medium. The nutrient agars are prepared by adding 23 g of nutrient agar to one-liter of deionized water. In addition, the alkaline medium is prepared by adjusting a 0.04M solution of N-[tris-(hydroxymethyl)methyl]-glycine buffered deionized water with concentrated sodium hydroxide to a pH of 8.5.
(§3) The test tubes containing the malt yeast agar and the nutrient agar are cooled in a water bath until the temperature of the agar is 48° C. Then, an appropriate amount of the one percent solution of the test compound is added (except in the controls where no compound is added) to the respective test tubes so that the final concentrations are zero (0), 1.0, 2.5, 5, 10, 25, 50, 100, 250 and 500 parts per million of the test compound in each of the respective type of agar. The contents of each of the test tubes are then transferred to separate petri plates. After drying for 24 hours, the petri plates containing nutrient agar are inoculated with bacteria and those containing malt yeast agar are inoculated with yeast and fungi.
(§4) The inoculation with bacteria is accomplished by using the following procedure. Twenty-four hour-cultures of each of the bacteria are prepared by incubating the respective bacteria in tubes containing nutrient broth for 24 hours at 30° C. in a shaker. Dilutions of each of the 24 hour-cultures are made so that nine separate suspensions (one for each of the nine test bacteria) are made, each containing 10^8 colony forming units (CFU) per mL of suspension of a particular bacteria. Aliquots of 0.3 mL of each of the bacterial suspensions are used to fill the individual wells of Steer's Replicator. For each microbial suspension, 0.3 mL was used to fill three wells (i.e., three wells of 0.3 mL each) so that for the nine different bacteria, 27 wells are filled. The Steer's Replicator is then used to inoculate both the neutral and alkaline pH nutrient agar petri plates.
(§5) The inoculated petri plates are incubated at 30° C. for 48 hours and then read to determine if the test compound which is incorporated into the agar prevented growth of the respective bacteria.
(§6) Table II list the bacteria, yeast and fungi used in the MIC test described above along with their respective American Type Culture Collection (ATCC) identification numbers.

[2] = tested on: Pseudomonas aeruginosa (PRD-10); assay: MIC for Pseudomonas aeruginosa PRD-10, nutrient agar; format: cell-based, Pseudomonas aeruginosa ATCC 15442; settings: 30° C., 48 hours, read-out: Minimum Inhibitory Concentration (MIC), PRD
Method: as §1, §2, §3, §4, §5, §6

Saccharomyces cerevisiae = assay: MIC for Saccharomyces cerevisiae, malt yeast agar; format: cell-based, Saccharomyces cerevisiae ATCC 4105; settings: malt yeast agar, 30° C., 48 hours for yeast, read-out: Minimum Inhibitory Concentration (MIC), Sc
Method: as §1
(§7) Malt yeast agar is prepared by adding 3 g yeast extract and 45 g malt agar per liter of deionized water. The specific agar is dispensed in 30 mL aliquots into 25×200 mm test tubes, capped and autoclaved for 15 minutes at 115° C.
as §3
(§8) The inoculation with the yeast and fungi is accomplished as follows. Cultures of yeast and fungi are incubated for seven days on malt yeast agar at 30° C. These cultures are used to prepare suspensions by the following procedure. A suspension of each organism is prepared by adding 10 mL of sterile saline and 10 microliters of octylphenoxy polyethoxy ethanol to the agar slant of yeast or fungi. The sterile saline/octylphenoxy polyethoxy ethanol solution is then agitated with a sterile swab to suspend the microorganism grown on the slant. Each resulting suspension is diluted into sterile saline (1 part suspension: 9 parts sterile saline). Aliquots of these dilutions are placed in individual wells of Steer's Replicator and petri plates inoculated as previously described. The petri plates are incubated at 30° C. and read after 48 hours for yeast and 72 hours for fungi.
as §6

Escherichia coli (Ec) = assay: MIC for Escherichia coli, nutrient agar; format: cell-based, Escherichia coli ATCC 11229; settings: 30° C., 48 hours, read-out: Minimum Inhibitory Concentration (MIC), Ec
Method: as §1, §2, §3, §4, §5, §6

[3] = tested on: Pseudomonas aeruginosa (Pa); assay: MIC for Pseudomonas aeruginosa, nutrient agar; format: cell-based, Pseudomonas aeruginosa ATCC 10145; settings: 48 hours, read-out: Minimum Inhibitory Concentration (MIC), Pa
Method: as §1, §2, §3, §4, §5, §6

[4] = tested on: Enterobacter aerogenes (Ea); assay: MIC for Enterobacter aerogenes, nutrient agar; format: cell-based, Enterobacter aerogenes ATCC 13048; settings: Klebsiella aerogenes, nutrient agar, 30° C., 48 hours, read-out: Minimum Inhibitory Concentration (MIC), Ea
Method: as §1, §2, §3, §4, §5, §6

Fusarium oxysporum (Fo) = assay: MIC for Fusarium oxysporum, malt yeast agar; format: cell-based, Fusarium oxysporum ATCC 48112; settings: malt yeast agar; 30° C., 72 hours for fungi; read-out: Minimum Inhibitory Concentration (MIC), Fo
Method: as §1, §7, §3, §8, §6

[5] = tested on: Aureobasidium pullulan (Ap); assay: MIC for Aureobasidium pullulan, malt yeast agar; format: cell-based, Aureobasidium pullulan ATCC 16622; settings: malt yeast agar; 30° C.; 48 hours for yeast and 72 hours for fungi; read-out: Minimum Inhibitory Concentration (MIC), Ap
Method: as §1, §7, §3, §8, §6

Trichoderma viride (Tv) = assay: MIC for Trichoderma viride, malt yeast agar; format: cell-based, Trichoderma viride ATCC 8678; settings: malt yeast agar; 30° C., 72 hours for fungi; read-out: Minimum Inhibitory Concentration (MIC), Tv
Method: as §1, §7, §3, §8, §6

Aspergillus niger (An) = assay: MIC for Aspergillus niger, malt yeast agar; format: cell-based, Aspergillus niger ATCC 16404; settings: malt yeast agar; 30° C., 72 hours for fungi; read-out: Minimum Inhibitory Concentration (MIC), An
Method: as §1, §7, §3, §8, §6

[6] = tested on: Penicillium chrysogenum (Pc); assay: MIC for Penicillium chrysogenum, malt yeast agar; format: cell-based, Penicillium chrysogenum ATCC 9480; settings: malt yeast agar; 30° C., 72 hours for fungi; read-out: Minimum Inhibitory Concentration (MIC), PC
Method: as §1, §7, §3, §8, §6

[7] = tested on: Klebsiella pneumonias (Kp); assay: MIC for Klebsiella pneumonias, nutrient agar; format: cell-based, Klebsiella pneumonias ATCC 8308; settings: 30° C., 48 hours, read-out: Minimum Inhibitory Concentration (MIC), Kp
Method: as §1, §2, §3, §4, §5, §6

Candida albicans (Ca) = assay: MIC for Candida albicans, malt yeast agar; format: cell-based, Candida albicans ATCC 10231; settings: malt yeast agar; 30° C., 48 hours for yeast; read-out: Minimum Inhibitory Concentration (MIC), Ca
Method: as §1, §7, §3, §8, §6

Bacillus subtilis (Bs) = assay: MIC for Bacillus subtilis, nutrient agar; format: cell-based, Bacillus subtilis ATCC 8473; settings: 30° C., 48 hours, read-out: Minimum Inhibitory Concentration (MIC), Bs
Method: as §1, §2, §3, §4, §5, §6

Proteus vulgaris (Pv) = assay: MIC for Proteus vulgaris, nutrient agar; format: cell-based, Proteus vulgaris ATCC 881; settings: 30° C., 48 hours, read-out: Minimum Inhibitory Concentration (MIC), Pv
Method: as §1, §2, §3, §4, §5, §6

Salmonella choleraesuis = assay: MIC for Salmonella choleraesuis, nutrient agar; format: cell-based, Salmonella choleraesuis ATCC 10708; settings: Salmonella enterica, 30° C., 48 hours, read-out: Minimum Inhibitory Concentration (MIC), SC
Method: as §1, §2, §3, §4, §5, §6

| SMILES | MIC ([1]; pH 6.8, nutrient agar) | MIC ([1]; pH 8.2, nutrient agar) | MIC ([2]; pH 6.8, nutrient agar) | MIC ([2]; pH 8.2, nutrient agar) | MIC (Saccharomyces cerevisiae) | MIC (Escherichia coli (Ec); pH 6.8, nutrient agar) | MIC (Escherichia coli (Ec); pH 8.2, nutrient agar) | MIC ([3]; pH 6.8, 30° C.) | MIC ([3]; pH 8.2, 30° C.) | MIC ([4]; pH 6.8) | MIC ([4]; pH 8.2) | MIC (Fusarium oxysporum (Fo)) | MIC [5] | MIC (Trichoderma viride (Tv)) | MIC (Aspergillus niger (An)) | MIC [6] | MIC ([7]; pH 6.8, nutrient agar) | MIC ([7]; pH 8.2, nutrient agar) | MIC (Candida albicans (Ca)) | MIC (Bacillus subtilis (Bs); pH 6.8, nutrient agar) | further results |
| --- | --- | --- | --- | --- | --- | --- | --- | --- | --- | --- | --- | --- | --- | --- | --- | --- | --- | --- | --- | --- | --- |
| N#CC1=C(C#N)Sc2c(cnn(-c3ccc([N+](=O)[O-])cc3)c2=O)S1 [H, 5,6-dihydro-6-(4-nitrophenyl)-5-oxo-1,4-dithiino-(2,3-d)-pyridazine-2,3-dicarbonitrile] | > 500 µg/mL | > 500 µg/mL | > 500 µg/mL | > 500 µg/mL | > 500 µg/mL | > 500 µg/mL | > 500 µg/mL | > 500 µg/mL | > 500 µg/mL | > 500 µg/mL | > 500 µg/mL | > 500 µg/mL | > 500 µg/mL | > 500 µg/mL | > 500 µg/mL | > 500 µg/mL | > 500 µg/mL | > 500 µg/mL | > 500 µg/mL | > 500 µg/mL | MIC (Bacillus subtilis (Bs); pH 8.2, nutrient agar): > 500 µg/mL; MIC (Proteus vulgaris (Pv); pH 6.8, nutrient agar): > 500 µg/mL; MIC (Proteus vulgaris (Pv); pH 8.2, nutrient agar): > 500 µg/mL; MIC (Salmonella choleraesuis; pH 6.8, nutrient agar): > 500 µg/mL; MIC (Salmonella choleraesuis; pH 8.2, nutrient agar): > 500 µg/mL |
| N#CC1=C(C#N)Sc2c(cnn(Cc3ccccc3)c2=O)S1 [I, 5,6-dihydro-6-(phenylmethyl)-5-oxo-1,4-dithiino-(2,3-d)-pyridazine-2,3-dicarbonitrile] | 50 µg/mL (≈ 154 µM) | > 500 µg/mL | > 500 µg/mL | > 500 µg/mL | < 10 µg/mL | > 500 µg/mL | > 500 µg/mL | 250 µg/mL (≈ 771 µM) | > 500 µg/mL | > 500 µg/mL | > 500 µg/mL | < 10 µg/mL | < 10 µg/mL | 25 µg/mL (≈ 77.1 µM) | 25 µg/mL (≈ 77.1 µM) | 25 µg/mL (≈ 77.1 µM) | 100 µg/mL (≈ 308 µM) | > 500 µg/mL | < 10 µg/mL | < 10 µg/mL | MIC (Bacillus subtilis (Bs); pH 8.2, nutrient agar): 100 µg/mL (≈ 308 µM); MIC (Proteus vulgaris (Pv); pH 6.8, nutrient agar): 100 µg/mL (≈ 308 µM); MIC (Proteus vulgaris (Pv); pH 8.2, nutrient agar): > 500 µg/mL; MIC (Salmonella choleraesuis; pH 6.8, nutrient agar): 250 µg/mL (≈ 771 µM); MIC (Salmonella choleraesuis; pH 8.2, nutrient agar): > 500 µg/mL |
| N#CC1=C(C#N)Sc2c(cnn(Cc3ccc(Cl)cc3)c2=O)S1 [J, 5,6-dihydro-6-((4-chlorophenyl)methyl)-5-oxo-1,4-dithiino-(2,3-d)-pyridazine-2,3-dicarbonitrile] | 25 µg/mL (≈ 69.7 µM) | 100 µg/mL (≈ 279 µM) | > 500 µg/mL | > 500 µg/mL | < 10 µg/mL | 100 µg/mL (≈ 279 µM) | > 500 µg/mL | > 500 µg/mL | > 500 µg/mL | > 500 µg/mL | > 500 µg/mL | < 10 µg/mL | < 10 µg/mL | 25 µg/mL (≈ 69.7 µM) | < 10 µg/mL | < 10 µg/mL | > 500 µg/mL | > 500 µg/mL | < 10 µg/mL | < 10 µg/mL | MIC (Bacillus subtilis (Bs); pH 8.2, nutrient agar): 50 µg/mL (≈ 139 µM); MIC (Proteus vulgaris (Pv); pH 6.8, nutrient agar): 250 µg/mL (≈ 697 µM); MIC (Proteus vulgaris (Pv); pH 8.2, nutrient agar): > 500 µg/mL; MIC (Salmonella choleraesuis; pH 6.8, nutrient agar): > 500 µg/mL; MIC (Salmonella choleraesuis; pH 8.2, nutrient agar): > 500 µg/mL |
| Cc1ccc(Cn2ncc3c(c2=O)SC(C#N)=C(C#N)S3)cc1 [K, 5,6-dihydro-6-((4-methylphenyl)methyl)-5-oxo-1,4-dithiino-(2,3-d)-pyridazine-2,3-dicarbonitrile] | > 500 µg/mL | > 500 µg/mL | > 500 µg/mL | > 500 µg/mL | 25 µg/mL (≈ 73.9 µM) | > 500 µg/mL | > 500 µg/mL | > 500 µg/mL | > 500 µg/mL | > 500 µg/mL | > 500 µg/mL | 25 µg/mL (≈ 73.9 µM) | < 10 µg/mL | 25 µg/mL (≈ 73.9 µM) | 25 µg/mL (≈ 73.9 µM) | 25 µg/mL (≈ 73.9 µM) | > 500 µg/mL | > 500 µg/mL | 25 µg/mL (≈ 73.9 µM) | < 10 µg/mL | MIC (Bacillus subtilis (Bs); pH 8.2, nutrient agar): 100 µg/mL (≈ 295 µM); MIC (Proteus vulgaris (Pv); pH 6.8, nutrient agar): 500 µg/mL (≈ 1480 µM); MIC (Proteus vulgaris (Pv); pH 8.2, nutrient agar): > 500 µg/mL; MIC (Salmonella choleraesuis; pH 6.8, nutrient agar): > 500 µg/mL; MIC (Salmonella choleraesuis; pH 8.2, nutrient agar): > 500 µg/mL |
